# Source: patent US20210267948A1, “TREATMENT OF CANCER” (CITY OF HOPE, priority 2017, published 2021)
# How the values were obtained:
# [1] = First-in-human Phase I dose escalation safety study; type: in vivo
# From the text: First-in-human Phase I, single site, dose escalation, safety study.
# Inclusion Criteria: (1) Male and female patients≥18 years of age with advanced, histologically confirmed solid tumors refractory to standard therapy or for which no standard therapy exists; (2) Patients must have measurable or evaluable disease; (3) Patients may be entered if they have received prior radiation therapy involving ≤30% of the bone marrow; (4) Patients may be enrolled with a history of treated brain metastases that are clinically stable for ≥4 weeks prior to enrollment; (5) ECOG Performance Status of ≤2; (6) Life expectancy of greater than 12 weeks as determined by treating clinician assessment; and (7) Adequate organ function per standard laboratory assessments.
# Exclusion Criteria: (1) Patients must not have received prior chemotherapy or radiation for ≥4 weeks before study treatment initiation; (2) Patients unable or unwilling to swallow pill; (3) Active heart disease including myocardial infarction within previous 3 months, symptomatic coronary artery disease or heart block, or uncontrolled congestive heart failure; and (4) Women who are pregnant or actively breast-feeding.
# Intrapatient dose escalation is allowed and design reverts to standard 3+3 if 2 moderate toxicities or 1 dose limiting toxicity (DLT) is encountered.
# With respect to the DLT definition, Grade≥3 non-hematological toxicity will be considered dose limiting with the following clarifications: Grade 3 diarrhea will only be considered dose limiting if it is refractory to treatment and unable to be corrected to grade 1 or less within 24 hours. Bloody or grade 4 diarrhea will be dose limiting; Grade 3 nausea and vomiting will only be considered dose limiting if it is refractory to anti-emetic therapy and unable to be corrected to grade 1 or less within 24 hours; Grade 3 rise in creatinine, not corrected to grade 1 or less within 24 hours with IV fluids will be considered dose limiting. All grade 4 rises in creatinine will be dose limiting; and Grade 3 electrolyte toxicities unable to be corrected to grade 1 or baseline within 24 hours will be considered dose limiting. Tumor pain will not be considered dose limiting unless it is refractory to optimal treatment with analgesics. With respect to Grade 4, the following will be considered: Grade 4 thrombocytopenia; Grade 4 neutropenia lasting ≥5 days or febrile neutropenia; Grade 4 hemolysis; Treatment delay>2 weeks as a result of unresolved toxicity; and any degree of anemia, leucopenia in the absence of grade 4 neutropenia lasting ≥5 days, or lymphopenia will not be considered dose limiting.
# Patients receive oral COH29 twice a day for 21 days of a 28-day cycle. Dose levels range from 200 to 2400 mg per day of administration. Dose escalation is pursued utilizing a Simon's accelerated titration design, which allows skipping of dose levels (dose doubling) during the accelerated dose-finding phase. PD assessment includes measurement of plasma CK18 levels to determine degree of cellular apoptosis, evaluation of dNTP pool levels in peripheral blood mononuclear cells (PBMCs) to evaluate RNR inhibition, as well as measurement of PAR expression in PBMCs to assess PARP inhibition. Quantitation of tumor RRM2 expression using dual-color immunohistochemistry is explored as a predictive biomarker of anti-tumor response to COH29.
# HCC1937 tumors = experiment: Orthotopic tumor model, HCC1937; type: in vivo, mouse; settings: HCC1937 in mammary fat pads, NSG mice, daily oral 400 mg/kg, 28 days
# Experimental: Orthotopic Tumor Model. Experiments in mice were conducted under a protocol approved by the IACUC of City of Hope. Because HCC1937 and HCC1937+BRCA1 cells form slow-growing tumors, they were implanted using MATRIGEL™ (Becton-Dickinson Biosciences). To establish tumors, 4×10^6 cells in 200 μL serum-free medium containing 50% MATRIGEL™ were injected into the mammary fat pads around the inguinal area of a pair of 8 week old female NSG mice. Once the initial tumors reached 13 mm in diameter, they were dissected out, minced into 3 mm pieces and implanted into the inguinal area of the mammary fat pads of the experimental mice. Tumors were measured over a 28-day period, and for each time point, the student t-test was used to determine the statistical significance between daily gavage with 400 mg/kg COH29 in 30% solutol and corresponding vehicle control. Thep value less than 0.05 (2 sides) was considered to indicate statistical significance
# ribonucleotide reductase = target: T1, ribonucleotide reductase (Homo sapiens, UniProt P31350); experiment: RNR activity and dNTP pools in MOLT-4 tumor xenografts; type: in vivo, mouse; settings: MOLT-4 xenografts
# T1 construct: from tissue; host or cells: MOLT-4 subcutaneous tumour xenografts from mice dosed orally with COH29
# Experimental: FIGS. 12A-12D depict the activity of COH29 in mouse xenografts. Cancer cells were implanted and allowed to grow at the subcutaneous site until the tumor was measurable. Subcutaneous xenograft growth curves for leukemic-(MOLT-4) mice treated for 12 days with oral COH29 in twice-daily dosing at 50 and 100 mg/kg (FIG. 12A) and for ovarian cancer bearing mice (TOV112D) treated for 7 days with 200, 300, or 400 mg/kg of oral COH29 (FIG. 12B) (shown are the average±SDs for 4 animals/group). FIG. 12C depicts the activity of RNR in MOLT-4 tumor xenografts from mice treated with vehicle (solutol-15) or 100 mg/kg of oral COH29 for 12 days. FIG. 12D depicts the effect of oral COH29 on intratumoral dTNP pools from MOLT-4 tumor xenografts.
# T1 sequence (P31350 whole entry): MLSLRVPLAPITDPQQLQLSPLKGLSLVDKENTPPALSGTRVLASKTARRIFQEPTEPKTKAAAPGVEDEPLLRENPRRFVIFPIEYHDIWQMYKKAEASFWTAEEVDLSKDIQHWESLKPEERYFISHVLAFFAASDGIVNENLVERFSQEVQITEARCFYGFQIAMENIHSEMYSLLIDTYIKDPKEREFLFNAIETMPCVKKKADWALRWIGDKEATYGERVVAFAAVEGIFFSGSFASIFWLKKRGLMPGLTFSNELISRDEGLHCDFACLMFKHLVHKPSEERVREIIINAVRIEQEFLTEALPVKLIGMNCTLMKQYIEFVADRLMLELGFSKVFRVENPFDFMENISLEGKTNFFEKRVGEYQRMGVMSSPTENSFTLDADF
structure (smiles),measurement,setting,value
"O=C(Nc1nc(-c2ccc(O)c(O)c2)c(-c2ccccc2)s1)c1ccc(O)c(O)c1 [COH29, N-(4-(3,4-dihydroxyphenyl)-5-phenylthiazol-2-yl)-3,4-dihydroxybenzamide]",realtime PK monitoring vs AUC safety threshold,"[1]; every patient, cycle 1",no exceeding of AUC safety threshold
same,toxicity / DLT,"[1]; first patient, dose level 1, 100 mg twice a day",without any DLT
same,toxicity / DLT,"[1]; fourth patient, dose level 7, 800 mg twice a day",moderate toxicity of grade 2 diarrhea
same,toxicity / DLT,"[1]; second patient, dose level 3, 200 mg twice a day",moderate toxicity of grade 2 skin rash
same,toxicity / DLT,"[1]; third patient, dose level 5, 400 mg twice a day",without any DLT
same,growth of tumors vs vehicle,HCC1937 tumors,significantly (p=0.0007) suppressed
same,tumor ribonucleotide reductase activity,"ribonucleotide reductase; 100 mg/kg oral, 12 days",reduced
same,intratumoral dNTF pools,ribonucleotide reductase; oral COH29,decrease
